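1) Cells in 96-well plates. 2) Compound, 48 h, 5 concentrations. 3) Linear interpolation between surrounding doses. 4) Unreached endpoint = highest concentration. At the TGI there is no net growth.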
What was measured:
Test in all cases: NCI-60 cell line screen, 48 h
786-0 renal = tested on: 786-0 renal
A498 renal = tested on: A498 renal
A549 NSCLC = tested on: A549 NSCLC
ACHN renal = tested on: ACHN renal
BT-549 breast = tested on: BT-549 breast
CAKI-1 renal = tested on: CAKI-1 renal
CCRF-CEM leukemia = tested on: CCRF-CEM leukemia
COLO 205 colon = tested on: COLO 205 colon
DU-145 prostate = tested on: DU-145 prostate
EKVX NSCLC = tested on: EKVX NSCLC
HCC-2998 colon = tested on: HCC-2998 colon
HCT-116 colon = tested on: HCT-116 colon
HCT-15 colon = tested on: HCT-15 colon
HL-60(TB) leukemia = tested on: HL-60(TB) leukemia
HOP-62 NSCLC = tested on: HOP-62 NSCLC
HS 578T breast = tested on: HS 578T breast
HT29 colon = tested on: HT29 colon
IGROV1 ovarian = tested on: IGROV1 ovarian
K-562 leukemia = tested on: K-562 leukemia
KM12 colon = tested on: KM12 colon
LOX IMVI melanoma = tested on: LOX IMVI melanoma
M14 melanoma = tested on: M14 melanoma
MALME-3M melanoma = tested on: MALME-3M melanoma
MCF7 breast = tested on: MCF7 breast
MDA-MB-231 breast = tested on: MDA-MB-231 breast
MDA-N = tested on: MDA-N
MOLT-4 leukemia = tested on: MOLT-4 leukemia
NCI-H226 lung = tested on: NCI-H226 lung
NCI-H23 lung = tested on: NCI-H23 lung
NCI-H522 lung = tested on: NCI-H522 lung
NCI/ADR-RES ovarian = tested on: NCI/ADR-RES ovarian
OVCAR-3 ovarian = tested on: OVCAR-3 ovarian
OVCAR-4 ovarian = tested on: OVCAR-4 ovarian
OVCAR-5 ovarian = tested on: OVCAR-5 ovarian
OVCAR-8 ovarian = tested on: OVCAR-8 ovarian
PC-3 prostate = tested on: PC-3 prostate
RPMI-8226 leukemia = tested on: RPMI-8226 leukemia
RXF 393 renal = tested on: RXF 393 renal
SF-268 CNS = tested on: SF-268 CNS
SF-295 CNS = tested on: SF-295 CNS
SF-539 CNS = tested on: SF-539 CNS
SK-MEL-2 melanoma = tested on: SK-MEL-2 melanoma
SK-MEL-28 melanoma = tested on: SK-MEL-28 melanoma
SK-MEL-5 melanoma = tested on: SK-MEL-5 melanoma
SK-OV-3 ovarian = tested on: SK-OV-3 ovarian
SN12C renal = tested on: SN12C renal
SNB-19 CNS = tested on: SNB-19 CNS
SNB-75 CNS = tested on: SNB-75 CNS
SR leukemia = tested on: SR leukemia
SW-620 colon = tested on: SW-620 colon
T-47D breast = tested on: T-47D breast
TK-10 renal = tested on: TK-10 renal
U251 CNS = tested on: U251 CNS
UACC-257 melanoma = tested on: UACC-257 melanoma
UACC-62 melanoma = tested on: UACC-62 melanoma
UO-31 renal = tested on: UO-31 renal

`CC(C)CC(N)C(=O)Nc1ccc2ccccc2c1` (stereo unspecified) gave a TGI (786-0 renal) of over 100 µM, a TGI (A498 renal) of over 100 µM and a TGI (A549 NSCLC) of over 100 µM. For the same molecule, the TGI (ACHN renal) was over 100 µM, the TGI (BT-549 breast) was over 100 µM and the TGI (CAKI-1 renal) was over 100 µM. The TGI (CCRF-CEM leukemia) was over 100 µM, the TGI (COLO 205 colon) was over 100 µM and the TGI (DU-145 prostate) was over 100 µM. For the same molecule, the TGI (EKVX NSCLC) was over 100 µM, the TGI (HCC-2998 colon) was over 100 µM and the TGI (HCT-116 colon) was over 100 µM. It also gave a TGI (HCT-15 colon) of over 100 µM, a TGI (HL-60(TB) leukemia) of over 100 µM and a TGI (HOP-62 NSCLC) of over 100 µM. The TGI (HS 578T breast) was over 100 µM, the TGI (HT29 colon) was over 100 µM and the TGI (IGROV1 ovarian) was over 100 µM. It also gave a TGI (K-562 leukemia) of over 100 µM, a TGI (KM12 colon) of over 100 µM and a TGI (LOX IMVI melanoma) of over 100 µM. For the same molecule, the TGI (M14 melanoma) was over 100 µM, the TGI (MALME-3M melanoma) was over 100 µM and the TGI (MCF7 breast) was over 100 µM. For the same molecule, the TGI (MDA-MB-231 breast) was over 100 µM, the TGI (MDA-N) was over 100 µM and the TGI (MOLT-4 leukemia) was over 100 µM. It also gave a TGI (NCI-H226 lung) of over 100 µM, a TGI (NCI-H23 lung) of over 100 µM and a TGI (NCI-H522 lung) of over 100 µM. For the same molecule, the TGI (NCI/ADR-RES ovarian) was over 100 µM, the TGI (OVCAR-3 ovarian) was over 100 µM and the TGI (OVCAR-4 ovarian) was 54.5 µM. It also gave a TGI (OVCAR-5 ovarian) of over 100 µM, a TGI (OVCAR-8 ovarian) of over 100 µM and a TGI (PC-3 prostate) of over 100 µM. For the same molecule, the TGI (RPMI-8226 leukemia) was over 100 µM, the TGI (RXF 393 renal) was over 100 µM and the TGI (SF-268 CNS) was over 100 µM. The TGI (SF-295 CNS) was over 100 µM, the TGI (SF-539 CNS) was over 100 µM and the TGI (SK-MEL-2 melanoma) was over 100 µM. For the same molecule, the TGI (SK-MEL-28 melanoma) was over 100 µM, the TGI (SK-MEL-5 melanoma) was over 100 µM and the TGI (SK-OV-3 ovarian) was over 100 µM. The TGI (SN12C renal) was over 100 µM, the TGI (SNB-19 CNS) was over 100 µM and the TGI (SNB-75 CNS) was over 100 µM. It also gave a TGI (SR leukemia) of over 100 µM, a TGI (SW-620 colon) of over 100 µM and a TGI (T-47D breast) of over 100 µM. It also gave a TGI (TK-10 renal) of over 100 µM, a TGI (U251 CNS) of over 100 µM and a TGI (UACC-257 melanoma) of over 100 µM. For the same molecule, the TGI (UACC-62 melanoma) was over 100 µM and the TGI (UO-31 renal) was over 100 µM.
